Source: US20140359899A1 (priority 2011, published 2014)

Tests used:
[1] = molecular target: FRET sucrose sensor FLIPsuc90μΔ1V; conditions: detection level of the sucrose sensor; cited from earlier work
[2] = molecular target: T1, AtSWEET12 (Arabidopsis thaliana, UniProt O82587); assay: Oocyte efflux assay: [14C]-sugar efflux from Xenopus oocytes expressing AtSWEET12; format: cell-based; conditions: FIG. 4D
T1 construct: Primers for the full length ORF of AtSWEET11 (AtSWT11FattB1 and AtSWT11attB2) or AtSWEET12; expressed in transfected cells; host or cells: Xenopus oocytes injected with capped cRNA from pOO2-GW
T1 sequence (O82587 whole entry): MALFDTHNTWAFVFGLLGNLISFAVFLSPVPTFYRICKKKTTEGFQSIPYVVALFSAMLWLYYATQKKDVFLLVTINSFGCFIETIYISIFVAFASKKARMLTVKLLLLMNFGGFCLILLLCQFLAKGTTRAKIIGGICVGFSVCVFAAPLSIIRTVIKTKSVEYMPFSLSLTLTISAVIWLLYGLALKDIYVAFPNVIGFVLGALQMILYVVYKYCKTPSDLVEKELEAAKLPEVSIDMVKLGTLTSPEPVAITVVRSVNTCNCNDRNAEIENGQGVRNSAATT

SMILES | Kd [1] [µM] | Maltose efflux [2]
OC[C@H]1O[C@@](CO)(O[C@H]2O[C@H](CO)[C@@H](O)[C@H](O)[C@H]2O)[C@@H](O)[C@@H]1O [sucrose] | ~90 | 
OC[C@H]1O[C@H](O[C@H]2[C@H](O)[C@@H](O)C(O)O[C@@H]2CO)[C@H](O)[C@@H](O)[C@@H]1O (mixture of isomers) [Maltose, maltose] |  | undetectable
